# Test results reported in a melting point compilation (Tetko et al.; mined from patent text by program, amines drawn as free bases though some values may be those of a salt).
row,Structure (SMILES),melting point
1,COc1ccc(-c2cc(=S)n(C)c(=O)n2C)cc1OC,146 to 148 °C
2,CCc1nc2c(cnn2CC)c(NC2CCOCC2)c1CNC(=O)c1cc(C)cc(C(=O)NCc2ccc(OC)c(-c3cccc(CN4CCNC(C)C4)c3)c2)c1 (stereo not drawn),121 to 123 °C
3,O=C(c1ccc(Cl)cc1Cl)C1(c2cccnc2)CC1,83 °C
4,COc1ccc(/C=C(\C)c2ccc3c(c2)C(C)(C)CCC3(C)C)cc1,108 to 110 °C
5,CCOC(=O)c1cccc(OCc2ccc3ccccc3c2)c1,45 to 46.5 °C
6,CC(C)(C)c1ccc(C2OCC(CO)([N+](=O)[O-])CO2)cc1 (stereo not drawn),90 to 92 °C
7,O=C(Cl)C(=O)N1CCOC1=O,57 °C
8,COc1ccc(-c2cc3ccc(C(=O)O)cc3o2)cc1C12CC3CC(CC(C3)C1)C2,290 °C
9,CCC(C)(C)OC(=O)NC(C)(Cc1c[nH]c2ccccc12)C(=O)NCCc1ccc(OC)cc1 (stereo not drawn),128 to 130 °C
10,CCOC(=O)C(Cc1ccccc1)NC(=O)N1CCc2cc(S(=O)(=O)N3CCN(c4cccc(Cl)c4)CC3)ccc21 (stereo not drawn),123 to 124 °C
11,CCOCC1C(C(=O)O)C1(C)C (stereo not drawn),40 to 40.5 °C
12,CN1CCN(S(=O)(=O)Nc2ccc(-c3nc(-c4ccc(F)cc4)c(-c4ccncc4)[nH]3)cc2)CC1,74 to 76 °C
13,C[C@@H](n1cnc2c(cnn2-c2ccc(Cl)cc2)c1=O)[C@](O)(Cn1cncn1)c1ccc(F)cc1F,237 to 238 °C
14,CCN1CCNS(=O)(=O)c2cc(Oc3ccccc3)ccc21,138 °C
15,CCc1cc(C(C)=O)c(O)cc1OCCCCCn1cncn1,87 °C
16,CCNC(=O)c1ccc(N2CCN(Cc3ccc4c(c3)NC(=O)C(C)O4)CC2)c(Cl)c1 (stereo not drawn),239 to 243 °C
17,COc1cc2c(Nc3cccc(Cl)c3F)ncnc2cc1OC1CCN(C(=O)C2CCCO2)CC1 (stereo not drawn),193 to 194 °C
18,CCN(CCOc1cccc2ccccc12)c1ccc(C(=O)O)cc1,205 to 206 °C
19,COc1ccc2cc([C@H](C)C(=O)OCCC(C)(C)C)ccc2c1,92 to 94 °C
20,Cc1nc(N2CCC(c3ccc(F)cc3)CC2)c([N+](=O)[O-])c(=O)n1CCCCO,154 to 156 °C
21,O=C1C=C(NC(=O)C(=O)c2cn(Cc3cc(C(F)(F)F)cc(C(F)(F)F)c3)c3ccccc23)CO1,276 to 278 °C
22,CC(=O)N1CCc2cc(S(=O)(=O)n3c(CCC(=O)O)cc4cc(C(F)(F)F)ccc43)ccc21,205 to 207 °C

row,Structure (SMILES),melting point
1,CN1CNC(=S)N(c2ccc([N+](=O)[O-])cc2)C1,170 to 172 °C
2,CC=Cc1c(-c2ccc(C(C)(C)C)cc2)[nH]c2nccnc12,207 to 208 °C
3,CCOC(=O)c1nnn(-c2ccccc2)c1N,124 to 126 °C
4,O[C@H]1c2cc(Oc3ccc4ccccc4n3)ccc2OC[C@H]1Oc1cccnc1 (relative stereo),112 to 114 °C
5,O=C(NCc1ccccn1)c1ccnc(N2CCN(CC3CC3)C2=O)c1,122 to 123 °C
6,O=C(c1ccccc1)c1ccc(N2CCCC2=O)cc1,156 to 158 °C
7,N#Cc1cc(-c2nc3cncnc3s2)ccc1Oc1ccc(O)cc1,> 250 °C
8,COC(=O)c1ccc2oc(=S)[nH]c2c1,218 to 221 °C
9,Cc1cccc(OCCCN2CCC(OC(c3ccccc3)c3ccccc3)CC2)c1NS(C)(=O)=O,132 °C
10,COc1ccc(C(=O)c2sccc2OC2OC(COC(C)=O)C(OC(C)=O)C(OC(C)=O)C2OC(C)=O)cc1 (stereo not drawn),149 to 151 °C
11,CCCCC1(CCCC)C(=O)N(C(C)(C)C)CC(C)(C)N1OC(C)(C)C#N,68 to 74 °C
12,COc1cc2nc(C)c3c4cc5c(cc4ccc3c2cc1OC)OCO5,> 250 °C
13,Cc1nnc(N2CCN(C=O)CC2)c2cc3ccccn3c12,325 °C
14,O=C(C=Cc1cccc(F)c1)C=Cc1cccc(F)c1,96 to 97 °C
15,N=C(NCc1cccc(F)c1)N[N+](=O)[O-],177 to 179 °C
16,O=[N+]([O-])c1cnc(Sc2nc(-c3ccc(Cl)cc3)n[nH]2)s1,181 to 184 °C
17,CCC1=c2ccccc2=NC1=O,100 to 101 °C
18,COCNC(=O)OC(C(=O)OC)P(C)(C)=O (stereo not drawn),101 °C
19,O=c1cc(OCc2ccccc2Cl)ccn1Cc1ccccc1,125 °C
20,CN1CCN(c2ccc3nc(N)c(C#N)c(Cl)c3c2)CC1,189 °C
21,Cc1nnc(-c2ccc3occ(-c4ccc(C(=O)O)cc4Cl)c3c2)o1,267 to 268 °C
22,COC(C(=O)O)C(=O)Nc1cc(Cl)cc(Cl)c1 (stereo not drawn),142 to 145 °C

# Now from value to compound:
row,melting point,Structure (SMILES)
1,269 to 271 °C,CS(=O)(=O)c1ccc(-c2c(-c3ccc(Cl)cc3)[nH]c3ccc(Cl)cc23)cc1
2,94 to 95.5 °C,CCOc1nccc(CC(=O)O)c1NC(=O)OC(C)(C)C
3,158 to 160 °C,O=S(=O)(CCl)c1ccc(O)c(Br)c1
4,262 to 264 °C,CC1CC(=O)c2c(C(=O)Nc3ccc(F)cc3)c[nH]c2C1 (stereo not drawn)
5,197 to 199 °C,COc1ccc2c(c1)Oc1cccc([N+](=O)[O-])c1N2
6,138 to 141 °C,CC(C)(C)NCC(O)COc1ccccc1C1=NNC(=O)CC1 (stereo not drawn)
7,168 to 169 °C,NC(=O)Cn1nccc1-c1ccc(Oc2ccc(F)cc2)cc1
8,113 to 116 °C,Cc1cccc(NC(=O)CN2CCN(c3ncccn3)CC2)c1
9,247 to 249 °C,CN(Cc1ccc(NC(=O)C2=Cc3cc(-c4ccc(C(C)(C)C)cc4)ccc3S(=O)(=O)CC2)cc1)C1CCOCC1
10,122 to 129 °C,COC(=O)CCc1cc(C(C)(C)C)c(O[Si](C)(C)Oc2c(C(C)(C)C)cc(CCC(=O)OC)cc2C(C)(C)C)c(C(C)(C)C)c1
11,222 to 225 °C,Cc1[nH]c(C(=O)C(Cl)(Cl)Cl)c2c1-c1ccc(Cl)cc1C(c1ccccc1F)=NC2
12,256 to 257 °C,O=C(C=Cc1ccc(Cl)cc1)NC1CCCNC(=O)C1 (stereo not drawn)
13,262 to 263 °C,CC(C)(O)C#Cc1cccc(Nc2nccc(-c3sc(N)nc3-c3ccccc3)n2)c1
14,150 °C,O=C1CCC(C2CCCCC2)CC1C(=S)Nc1ccccc1 (stereo not drawn)
15,146 to 147 °C,CC(C)(NC(=O)C(O)C(Cc1ccc(S(C)(=O)=O)cc1)NC(=O)OCc1ccccc1)C(=O)O (stereo not drawn)
16,215 to 218 °C,COc1ccc(NC(=O)c2ccc(Cl)c(Cl)c2)cc1[N+](=O)[O-]
17,176 to 178 °C,CC1CCN(C(=O)NCCc2ccc(S(=O)(=O)NC(=O)NC3CCCCC3)cc2)C(=O)C1 (stereo not drawn)
18,178 °C,Cn1ncnc1COc1nn2c(-c3ccccc3F)nnc2cc1C1CC(F)(F)C1
19,256 to 258 °C,CC(C)(O)Cn1c(CO)nc2c(N)nc3cc(-c4ccc(F)c(F)c4)cnc3c21
20,142 to 145 °C,CC(=NC(=Nc1ccccc1)N1CCOCC1)NC(C)C
21,148 °C,Cc1csc2nc3cc(F)ccc3n12
22,120 °C,CC(C)(C)NCC(O)c1ccc(OCc2ccccc2)c(C(N)=O)c1 (stereo not drawn)
23,204 to 207 °C,Cn1nc(N2c3cc(F)ccc3CC2C(=O)N2CCCCCC2)ccc1=O (stereo not drawn)
24,96 to 98 °C,CCOC(=O)C1SCCc2cc(OC)c(OC)cc21 (stereo not drawn)
25,80 to 81 °C,COC(=O)Cc1cc(C)ccc1OCc1ccc(OCc2nc(-c3ccccc3)oc2C)cc1
26,132 °C,CCOC(=O)c1c(O)c2cc(C)ccc2n(C)c1=O
27,222 to 224 °C,N#CC1=C(C#N)NC(c2ccccc2)C(O)=N1 (stereo not drawn)

row,melting point,Structure (SMILES)
1,91 to 93 °C,CC(Oc1ccc(OC(F)(F)F)cc1)c1ccnc2ncnn12 (stereo not drawn)
2,136 to 138 °C,CCCCc1nc(CCCC)n(Cc2ccc(-c3ccccc3-c3nnn[nH]3)cn2)n1
3,66 to 70 °C,CCCCCCCCCOP(=O)(CNC(=O)Nc1c(C(C)C)cccc1C(C)C)OCC (stereo not drawn)
4,105 to 107 °C,Nc1ccc2c(c1)CC(NS(=O)(=O)c1ccccc1)C2 (stereo not drawn)
5,178 to 180 °C,CS(=O)(=O)N1CCN(C(=N)Nc2ccccc2-c2ccccc2)CC1
6,36 to 38 °C,CCCCCCCCCCCCCCOc1ccc(CC(=O)OC)cc1
7,129 to 131 °C,O=Cc1c2ccccc2cc2c(Cl)cccc12
8,85 to 105 °C,COc1cc(OC)c(-c2cc3ccccc3s2)cc1C=CC(=O)c1cc(OC)c(O)c(OC)c1
9,92 to 93.5 °C,Clc1ncccc1-c1cccnc1
10,201 to 205 °C,O=C(O)c1cc(-n2c(-c3ccccc3)cc3c2Cc2ccccc2-3)ccc1O
11,135 to 163 °C,C=C(Cl)Cc1cc2c(C)cc(=O)oc2c(C)c1O
12,200 to 201 °C,CCOC(=O)NN=Cc1cn(-c2ccccc2)nc1-c1ccc([N+](=O)[O-])o1
13,173 °C,C#CCOC1(Nc2cccc(OCC3CO3)c2)N=CC(Br)=CN1 (stereo not drawn)
14,185 to 186 °C,CNS(=O)(=O)c1cc2ccccc2cc1CC(=O)O
15,169 to 172 °C,CCCCc1oc2ccccc2c1C(=O)NCc1ccc2c(-c3ccc(Cl)cc3)c(OC(Cc3ccccc3)C(=O)O)ccc2c1 (stereo not drawn)
16,146 to 148 °C,CC(=O)c1cccc(-c2ncc(N=CN(C)C)cn2)c1
17,154 to 155 °C,Cc1nc(-n2cnn(CCOc3ccc(F)cc3)c2=O)sc1C(=O)NCc1cccnc1
18,238 to 240 °C,CSc1ccc(-c2cc(-c3nc4ccccc4c(=O)n3-c3ccc(C)cc3)sc2N2CCOCC2)cc1
19,169 to 171 °C,CC(=O)Nc1ccc(N2CCN(c3ccc(OCC(O)(Cn4cncn4)c4ccc(Cl)cc4Cl)cc3)CC2)cc1 (stereo not drawn)
20,188 to 189 °C,C=C(c1ccc(C(C)C)cc1)c1c(C)c(NC(=O)CC(C)(C)C)c(C)c2c1OCC2
21,188 to 192 °C,O=C(Nc1ccc(C(F)(F)F)cc1)N1CC2CSc3cc(Cl)ccc3C2=N1 (stereo not drawn)
22,130 to 131 °C,O=C(O)C(Cc1ccccc1)C(=O)N[C@H](CO)Cc1c[nH]c2ccccc12 (stereo partly drawn)
23,153 to 154 °C,NC(=O)c1nc2ccccc2cc1OCCCN1CCN(c2cccc3sccc23)CC1
24,296 to 297 °C,COc1cc(C=C2NC(=O)NC2=O)cc(OC)c1O
25,105 °C,CN1C(=O)N(C[C@@H](CCS(=O)(=O)c2ccc(Oc3ccc(F)cc3)cc2)N(O)C=O)C(=O)C1(C)C
26,73 to 75 °C,COC(=O)c1ccc(O)c(OC2CCCC2)c1
27,86 to 87 °C,Cc1cc(N)n(-c2ccc(Cl)cc2C)n1
